According to ChEMBL document CHEMBL4651402, “Screening of ~5500 FDA-approved drugs and clinical candidates for anti-SARS-CoV-2 activity” (2021):
Counter-ions that a name gives are not always drawn. Bridge positions count the residues as written; N and C are the ends. Square brackets hold non-standard residues; d marks the D form. Peptide text beside a SMILES is read from it. * marks the point of attachment. NH(β-GlcNAc) = CC(=O)N[C@@H]1[C@@H](O)[C@H](O)[C@@H](CO)O[C@H]1N*; Dap = NC[C@H](N)C(=O)O

Test system: SARS-CoV-2
Assay: microbe, parasite or virus in culture
Settings: Severe acute respiratory syndrome coronavirus 2, Vero C1008, 48 h

| Structure (SMILES) | IC50 [µM] | IC50 (read-out: pIC50 (converted)) [µM] |
| --- | --- | --- |
| CCOC(=O)C1(c2ccccc2)CCN(CCN2CCOCC2)CC1 [MORPHERIDINE] | > 20 | > 20 |
| CCOc1cc(N)c(Cl)cc1C(=O)NCC1CN(Cc2ccc(F)cc2)CCO1 (stereo not drawn) [MOSAPRIDE] | > 20 | > 20 |
| CC1(C)CNc2cc(NC(=O)c3cccnc3NCc3ccncc3)ccc21 [MOTESANIB] | > 20 | > 20 |
| CCCN(CCC)C(=O)C1=Cc2ccc(-c3ccc(C(=O)N4CCCC4)cc3)cc2N=C(N)C1 [MOTOLIMOD] | > 20 | > 20 |
| COc1c(N2C[C@@H]3CCCN[C@@H]3C2)c(F)cc2c(=O)c(C(=O)O)cn(C3CC3)c12 [MOXIFLOXACIN] | > 20 | > 20 |
| CC(=O)Oc1cc(C(C)C)c(OCCN(C)C)cc1C [MOXISYLYTE] | > 20 | > 20 |
| Cn1c([N+](=O)[O-])cnc1/C=N/N1CC(CN2CCOCC2)OC1=O (stereo not drawn) [MOXNIDAZOLE] | > 20 | > 20 |
| COc1nc(C)nc(Cl)c1NC1=NCCN1 [MOXONIDINE] | > 20 | > 20 |
| Cc1ccccc1C(=O)Nc1ccc(C(=O)N2CCCC(N(C)C)c3ccccc32)cc1 (stereo not drawn) [MOZAVAPTAN] | > 20 | > 20 |
| CC(c1ccc(Cl)c(Cl)c1)N1N=C(N)CC1=O (stereo not drawn) [MUZOLIMINE] | > 20 | > 20 |
| COc1c(C)c2c(c(O)c1C/C=C(\C)CCC(=O)OCCN1CCOCC1)C(=O)OC2 [MYCOPHENOLATE MOFETIL] | > 20 | > 20 |
| COc1c(C)c2c(c(O)c1C/C=C(\C)CCC(=O)O)C(=O)OC2 [MYCOPHENOLIC ACID] | > 20 | > 20 |
| CC1N(CC(=O)c2ccccc2)CCCC1(C)c1cccc(O)c1 (stereo not drawn) [MYFADOL] | > 20 | > 20 |
| c1cncc(C2=NCCC2)c1 [MYOSMINE] | > 20 | > 20 |
| O=c1c(O)c(-c2cc(O)c(O)c(O)c2)oc2cc(O)cc(O)c12 [MYRICETIN] | > 20 | > 20 |
| CCCCCCCCCCCCCC(=O)O [MYRISTIC ACID] | > 20 | > 20 |
| OC[C@H]1O[C@@H](n2cnc3c(NC4CCCC4)ncnc32)[C@H](O)[C@@H]1O [N6-CYCLOPENTYLADENOSINE] | > 20 | > 20 |
| N=C(N)NC(=O)c1nc(Cl)c(N2CCCCCC2)nc1N [N,N-HEXAMETHYLENEAMILORIDE] | > 20 | > 20 |
| CC(=O)N1CCCC1C(=O)O (stereo not drawn) [N-ACETYLPROLINE] | > 20 | > 20 |
| COc1ccc2cc(CCC(C)=O)ccc2c1 [NABUMETONE] | > 20 | > 20 |
| NC(=O)c1ccc[n+]([C@@H]2O[C@H](COP(=O)([O-])OP(=O)(O)OC[C@H]3O[C@@H](n4cnc5c(N)ncnc54)[C@H](O)[C@@H]3O)[C@@H](O)[C@H]2O)c1 [NADIDE] | > 20 | > 20 |
| CC1CCc2c(N3CCC(O)CC3)c(F)cc3c(=O)c(C(=O)O)cn1c23 (stereo not drawn) [NADIFLOXACIN] | > 20 | > 20 |
| CC(C)(C)NCC(O)COc1cccc2c1CC(O)C(O)C2 (stereo not drawn) [NADOLOL] | > 20 | > 20 |

| Structure (SMILES) | IC50 [µM] | IC50 (read-out: pIC50 (converted)) [µM] |
| --- | --- | --- |
| N=C(N)Nc1ccc(C(=O)Oc2ccc3cc(C(=N)N)ccc3c2)cc1 [NAFAMOSTAT] | > 20 | > 20 |
| CCOc1ccc2ccccc2c1C(=O)N[C@@H]1C(=O)N2[C@@H]1SC(C)(C)[C@@H]2C(=O)O [NAFCILLIN] | > 20 | > 20 |
| CC(C)(Oc1ccc(C2CCCc3ccccc32)cc1)C(=O)O (stereo not drawn) [NAFENOPIN] | > 20 | > 20 |
| O=C(Cn1ccnc1)c1ccc2ccccc2c1 [NAFIMIDONE] | > 20 | > 20 |
| CCN(CC)CCOC(=O)C(Cc1cccc2ccccc12)CC1CCCO1 (stereo not drawn) [NAFRONYL] | > 20 | > 20 |
| CN(C/C=C/c1ccccc1)Cc1cccc2ccccc12 [NAFTIFINE] | > 20 | > 20 |
| COc1ccccc1N1CCN(CC(O)COc2cccc3ccccc23)CC1 (stereo not drawn) [NAFTOPIDIL] | > 20 | > 20 |
| Oc1ccc2c3c1O[C@H]1[C@@H](O)CC[C@@]4(O)[C@@H](C2)N(CC2CCC2)CC[C@]314 [NALBUPHINE] | > 50.1 | > 50.1 |
| CCn1cc(C(=O)O)c(=O)c2ccc(C)nc21 [NALIDIXIC ACID] | > 20 | > 20 |
| C=CCN1CC[C@]23c4c5ccc(O)c4O[C@H]2C(=O)CC[C@@]3(O)[C@H]1C5 [NALOXONE] | > 20 | > 20 |
| O=C1CC[C@@]2(O)[C@H]3Cc4ccc(O)c5c4[C@@]2(CCN3CC2CC2)[C@H]1O5 [NALTREXONE] | > 20 | > 20 |
| CNC(=O)[C@H]1O[C@@H](n2cnc3c(NCc4cccc(I)c4)nc(Cl)nc32)[C@H](O)[C@@H]1O [NAMODENOSON] | > 20 | > 20 |
| CCCCCCCCCC(=O)O[C@H]1CC[C@H]2[C@@H]3CCC4=CC(=O)CC[C@@H]4[C@H]3CC[C@]12C [NANDROLONE DECANOATE] | > 20 | > 20 |
| C[C@]12CC[C@H]3[C@@H](CCC4=CC(=O)CC[C@@H]43)[C@@H]1CC[C@@H]2O [NANDROLONE] | > 20 | > 20 |
| CC(=O)Oc1cc(OC(C)CCCc2ccccc2)cc2c1[C@@H]1C[C@H](O)CC[C@H]1[C@H](C)N2 (stereo partly drawn) [NANTRADOL HYDROCHLORIDE] | > 20 | > 20 |
| CC(=O)c1cc2c(o1)C(=O)c1ccccc1C2=O [NAPABUCASIN] | > 20 | > 20 |
| C/N=C(/Cc1ccc2ccccc2c1)NC [NAPACTADINE] | > 20 | > 20 |
| c1ccc2c(CC3=NCCN3)cccc2c1 [NAPHAZOLINE] | > 20 | > 20 |
| O=C1C=CC(=O)c2ccccc21 [NAPHTHOQUINONE] | > 20 | > 20 |
| COc1ccc2cc([C@H](C)CO)ccc2c1 [NAPROXOL] | > 20 | > 20 |
| CC1CN(C)CC2Cc3c(ccc4ccccc34)OC12O (stereo not drawn) [NARANOL] | > 20 | > 20 |
| COc1ccc(C(=O)Cc2c(CCN(C)C)cc3c(c2OC)OCO3)c(C(=O)O)c1OC [NARCEINE] | > 20 | > 20 |
| O=C1C[C@@H](c2ccc(O)cc2)Oc2cc(O)cc(O)c21 [NARINGENIN] | > 20 | > 20 |

| Structure (SMILES) | IC50 [µM] | IC50 (read-out: pIC50 (converted)) [µM] |
| --- | --- | --- |
| C[C@@H]1O[C@@H](O[C@H]2[C@H](Oc3cc(O)c4c(c3)O[C@H](c3ccc(O)cc3)CC4=O)O[C@H](CO)[C@@H](O)[C@@H]2O)[C@H](O)[C@H](O)[C@H]1O [NARINGIN] | > 20 | > 20 |
| CC(C)[C@H]1CC[C@H](C(=O)N[C@H](Cc2ccccc2)C(=O)O)CC1 [NATEGLINIDE] | > 20 | > 20 |
| CC[C@@H](Nc1c(Nc2cccc(C(=O)N(C)C)c2O)c(=O)c1=O)c1ccc(C)o1 [NAVARIXIN ANHYDROUS] | > 20 | > 20 |
| Cc1cc(C(=O)Nc2nc3cccc(Cl)c3n2[C@@H]2CCCCN(C(=O)/C=C/CN(C)C)C2)ccn1 [NAZARTINIB] | > 20 | > 20 |
| NC[C@H]1O[C@H](O[C@H]2[C@H](O)[C@@H](O)[C@H](N)C[C@@H]2N)[C@H](N)[C@@H](O)[C@@H]1O [NEAMINE] | > 20 | > 20 |
| CCCc1c2oc(C(=O)O)cc(=O)c2cc2c(=O)cc(C(=O)O)n(CC)c12 [NEDOCROMIL] | > 20 | > 20 |
| CCc1nn(CCCN2CCN(c3cccc(Cl)c3)CC2)c(=O)n1CCOc1ccccc1 [NEFAZODONE] | > 20 | > 20 |
| O=c1ncn2nc(Sc3ccc(F)cc3F)ccc2c1-c1c(Cl)cccc1Cl [NEFLAMAPIMOD] | > 20 | > 20 |
| CN1CCOC(c2ccccc2)c2ccccc2C1 (stereo not drawn) [NEFOPAM] | > 20 | > 20 |
| COc1nc(N)nc2c1ncn2[C@@H]1O[C@H](CO)[C@@H](O)[C@@H]1O [NELARABINE] | > 50.1 | > 50.1 |
| COc1ccc(CCC(=O)c2c(O)cc(O[C@@H]3O[C@H](CO)[C@@H](O)[C@H](O)[C@H]3O[C@@H]3O[C@@H](C)[C@H](O)[C@@H](O)[C@H]3O)cc2O)cc1O [NEOHESPERIDIN DIHYDROCHALCONE] | > 20 | > 20 |
| CN(C)C(=O)Oc1cccc([N+](C)(C)C)c1 [NEOSTIGMINE] | > 20 | > 20 |
| CC(=O)N[C@@H]1[C@@H](O)[C@H](O)[C@@H](CO)O[C@H]1NC(=O)C[C@@H]1NC(=O)[C@H](CC(C)C)NC(=O)[C@@H]2CNC(=O)C[C@H](NC1=O)C(=O)N[C@@H](Cc1c[nH]c3ccccc13)C(=O)N[C@@H](Cc1ccccc1)C(=O)N2 [NEPADUTANT] (cyclo(D(NH(β-GlcNAc))DWF[Dap]L); lactam 2-5) | > 20 | > 20 |
| CNC(=O)c1c(-c2ccc(F)cc2)oc2cc(N(CCO)S(C)(=O)=O)c(C3CC3)cc12 [NESBUVIR] | > 20 | > 20 |
| O=C1NC(=O)C(Cc2ccc3cc(OCc4ccccc4F)ccc3c2)S1 (stereo not drawn) [NETOGLITAZONE] | > 20 | > 20 |
| Cc1ccccc1-c1cc(N2CCN(C)CC2)ncc1N(C)C(=O)C(C)(C)c1cc(C(F)(F)F)cc(C(F)(F)F)c1 [NETUPITANT] | > 20 | > 20 |
| Cc1ccnc2c1NC(=O)c1cccnc1N2C1CC1 [NEVIRAPINE] | > 20 | > 20 |
| NC(=O)c1cccnc1 [NIACINAMIDE] | > 20 | > 20 |
| O=C(O)c1cccnc1 [NIACIN] | > 20 | > 20 |
| O=C(CCNNC(=O)c1ccncc1)NCc1ccccc1 [NIALAMIDE] | > 20 | > 20 |
| CC(CCN1CCN(c2ccc(F)cc2)CC1)NC(=O)c1cccnc1 (stereo not drawn) [NIAPRAZINE] | > 20 | > 20 |
| COC(=O)C1=C(C)NC(C)=C(C(=O)OCCN(C)Cc2ccccc2)C1c1cccc([N+](=O)[O-])c1 (stereo not drawn) [NICARDIPINE] | > 20 | > 20 |
| CO[C@]12C[C@@H](COC(=O)c3cncc(Br)c3)CN(C)[C@@H]1Cc1cn(C)c3cccc2c13 [NICERGOLINE] | > 20 | > 20 |
